# Measured values as given in US20070112043A1, “Acylated and non-acylated imidazo[2,1-b]-1,3,4,-thiadiazole-2-sulfonamides, and uses thereof” (priority 2003, published 2007).
# Values joined by “and” are separate entries in the source; they are usually repeats but may differ in a detail not shown here. Equal values may be shown once. “Also recorded” adds a separate entry of the source. Read-outs that look alike come from different tables or passages of the source.
# How the values were obtained:
# [1] = test system: Male Sprague-Dawley rats; assay: Rat model of cisplatin induced neuropathy (SNCV); assay type: in vivo; conditions: for efficacy in cisplatin model of peripheral neuropathy: dose not stated
# Protocol: (§1) Male Sprague-Dawley rats were administered 2.5 mg/kg cisplatin daily, for five consecutive days to achieve a final cumulative dose of 12.5 mg/kg. On the third day following the final cisplatin injection, animals received compounds SC at concentrations of (3, 10, and 30 mg/kg). Dosing continued Monday through Friday for three consecutive weeks. The effect of cisplatin on peripheral nerve function, and the ability of the compounds to attenuate the cisplatin effect were determined after three weeks of drug treatment by measuring the sensory nerve conduction velocity (SNCV) in the caudal nerve of the tail. Stimulating electrodes were used to deliver 2 mA pulses once per second for 1.5 min. The resulting compound sensory nerve action potentials were averaged, and the mean response onset time was determined from the averaged response. Two mean response times were determined, the second being 20 mm distal from the first. The difference in onset time between the two recordings was determined and used to calculate the conductance velocity.
# Male Sprague-Dawley rats (weighing 200-225 g on arrival) were intraperitoneally administered 2.5 mg/kg cisplatin daily, for five consecutive days to achieve a final cumulative dose of 12.5 mg/kg. On the third day following the final cisplatin injection, animals received compounds SC at concentrations of (3, 10, and 30 mg/kg). Dosing continued Monday through Friday for three consecutive weeks.
# as §1, with “The” for “Male Sprague-Dawley rats were administered 2.5 mg/kg cisplatin daily, for five consecutive days to achieve a final cumulative dose of 12.5 mg/kg. On the third day following the final cisplatin injection, animals received compounds SC at concentrations of (3, 10, and 30 mg/kg). Dosing continued Monday through Friday for three consecutive weeks. The”, “velocity. [formula]” for “velocity.”
# The results of these experiments were combined, and ANOVA was performed, followed by a Fisher LSD test.
# [2] = Stability of solutions/formulations; assay type: physicochemical; conditions: for Stability of HPCD formulation: 10 wt/vol % HPCD, room temperature; for Stability in 10 wt/vol HPCD: PBS/HPCD (25:75) solution
# Source text: (§2) This is illustrated for compound 15 in Table 7.
# [3] = test system: sciatic nerve; conditions: 1 and 10 mg/kg; cited from earlier work
# [4] = Solubility in water and formulations; conditions: for Solubility 10 wt/vol % HPCD water: Na salts in aqueous 10 wt/vol % HPCD; for Solubility Water: Na salts in water; for Solubility in 10 wt/vol HPCD: PBS/HPCD (25:75) solution
# Protocol: Alternatively, the sodium salt can be prepared in situ by dissolving the free acid in phosphate buffered saline (PBS) that has been buffered to a pH of 7.4. The solubility and stability of these solutions can be improved by the use of an aqueous soluble co-solvent such as, but not limited to HPCD. This solubility can be further improved by the addition of surfactants such as PEG 400. In general, the free acid is suspended in 10 wt/vol % HPDC (10 g dissolved in 100 mL water) and treated with 0.5M PBS (pH 7.4) such that the volumes are in a ratio of 75:25.
# [5] = Pharmacokinetics of primary sulfonamides and Na salts (oral, SC); assay type: in vivo
# Protocol: HPCD formulations of compounds represented by formula I also display improved pharmacokinetic properties as compared to compounds dissolved in water.
# When compound 2 is administered at 10 mg/kg SC excellent plasma drug concentrations are observed_(Cmax=2.0 μg/mL, C1/2=0.8 hrs). […]
# [6] = Conversion to primary sulfonamide in rat primary hepatocytes; assay type: in vitro ADME; conditions: 90 minutes
# Protocol: Compound 15 is converted to compound 1 in the presence of liver microsomes using the procedure described by Cresteil, T., et al. (Cresteil, T., et al. Am. Soc. Pharm. Exper. Therapeutics, 2002, 30, 438-445). Upwards of 50% conversion is observed after 60 minutes. When incubated with rat primary hepatocytes, the conversion of compounds 15, 37, and 44 to their respective primary sulfonamides, 1, 11, and 13, is observed.
# [7] = log P; assay type: physicochemical
# [8] = pH of formulation; assay type: physicochemical; conditions: PBS/HPCD (25:75) solution
# Source text: as §2
# [9] = test system: 15N neuroblastoma cells; assay: Alamar blue viability assay, 15N neuroblastoma; assay type: cell-based; conditions: cellular viability after 48 hours; compound dissolved in DMSO
# Protocol: In order to investigate the anti-cancer potential of compounds represented by formula I-a, 15N neuroblastoma cells lines were treated with compound and assayed for cellular viability after 48 hours. The cellular viability of 15N neuroblastomas treated with compounds 1, 5, 6, 11, and 13 (dissolved in DMSO) are summarized in Table 5 (see Compound 152).
# Compounds were tested for anti-cancer properties using the Alamar blue viability assay. Daoy human medulloblastoma cells of 15N neuroblastoma cells were plated at a density of 5000 cells per well of a 96 well plate and cultured in RPMI media supplemented with antibiotics and 5% fetal bovine serum. Cells in culture were incubated with compound for 48 hours after which time Alamar blue was added to the culture media. After 4 hours media was transferred to opaque white plates and fluorescence of transformed alamar blue was measured at excitation 535/emission 595).
# [10] = Microsomal stability; assay type: in vitro ADME
# [11] = test system: SCG neurons; conditions: cited from earlier work
# [12] = gavage 10 mg/kg, CMC/Tween 80 (semi-)suspension
# [13] = Taxol induced cell death, read-out: Taxol SCG IC50
SMILES,Stability in 10 wt/vol HPCD [2],log P [7],pH [8],Solubility in 10 wt/vol HPCD [4],further results
COc1cccc(-c2ccc(-c3cn4nc(S([NH-])(=O)=O)sc4n3)cc2)c1.[Na+] [Compound 10],,,,,"Cisplatin-induced loss in SNCV ([1]; 10-30 mg/kg, data not shown): protective; efficacy in cisplatin model of peripheral neuropathy [1]: efficacy; Stability of HPCD formulation [2]: >14 days; functional recovery (toe spread) [3]: improved recovery; Solubility 10 wt/vol % HPCD water [4]: 10000 µg/mL"
COCC(=O)NS(=O)(=O)c1nn2cc(-c3ccc(Oc4ccc(Cl)cc4)cc3)nc2s1 [Compound 45],,,,,Cisplatin-induced attenuation of SNCV ([1]; 30 mg/kg SC): protective activity
[NH-]S(=O)(=O)c1nn2cc(-c3ccc(N4CCOCC4)cc3)nc2s1.[Na+] [Compound 6],,,,,"Cisplatin-induced loss in SNCV ([1]; 10-30 mg/kg, data not shown): protective; efficacy in cisplatin model of peripheral neuropathy [1]: efficacy; Stability of HPCD formulation [2]: >14 days; Solubility 10 wt/vol % HPCD water [4]: 15000 µg/mL; Solubility Water [4]: 2300 µg/mL"
[NH-]S(=O)(=O)c1nn2cc(-c3ccccc3)nc2s1.[Na+] [Compound 2],,,,,"Cisplatin-induced loss in SNCV ([1]; 10-30 mg/kg, data not shown): protective; efficacy in cisplatin model of peripheral neuropathy [1]: efficacy; Stability of HPCD formulation [2]: >14 days; C1/2 ([5]; SC 10 mg/kg): 0.8 h; plasma Cmax ([5]; SC 10 mg/kg, 10 wt/vol % HPCD solution): 2000 ng/mL; C1/2 [5, 12]: 0.9 h; oral bioavailability [5, 12]: improved; Cmax ([5]; gavage 10 mg/kg, aqueous 0.5 wt/vol % CMC/0.5 wt/vol % Tween 80 (semi-)suspension): 560 ng/mL; functional recovery (toe spread) [3]: improved recovery; Solubility 10 wt/vol % HPCD water [4]: 20000 µg/mL; Solubility Water [4]: 10000 µg/mL"
CC(=O)NS(=O)(=O)c1nn2cc(-c3ccc(Oc4ccc(Cl)cc4)cc3)nc2s1 [Compound 44],,,,,conversion rate to primary sulfonamide [6]: 12%
CC(=O)NS(=O)(=O)c1nn2cc(-c3ccc(N4CCOCC4)cc3)nc2s1 [Compound 31],>4 weeks,2.48,7.4,10000 µg/mL,Cisplatin-induced attenuation of SNCV ([1]; 30 mg/kg SC): protective activity
CC(C)(C)OC(=O)NCC(=O)NS(=O)(=O)c1nn2cc(-c3ccccc3)nc2s1 [Compound 18],>4 weeks,3.32,7.4,10000 µg/mL,
CC(=O)NCC(=O)NS(=O)(=O)c1nn2cc(-c3ccccc3)nc2s1 [Compound 20],>4 weeks,1.45,7.4,10000 µg/mL,
[NH-]S(=O)(=O)c1nn2cc(-c3ccc(Oc4ccc(Cl)cc4)cc3)nc2s1.[Na+] [Compound 14],,,,,Cisplatin-induced attenuation of SNCV ([1]; 10 mg/kg): prevented; Cisplatin-induced loss in SNCV ([1]; 10 and 30 mg/kg): prevented; efficacy in cisplatin model of peripheral neuropathy [1]: efficacy; Stability of HPCD formulation [2]: >14 days; Solubility 10 wt/vol % HPCD water [4]: 20000 µg/mL; Solubility Water [4]: 10000 µg/mL
CCCC(=O)NS(=O)(=O)c1nn2cc(-c3ccccc3)nc2s1 [Compound 16],>4 weeks,3.67,7.4,4000 µg/mL,
O=C(O)CCC(=O)NS(=O)(=O)c1nn2cc(-c3ccccc3)nc2s1 [Compound 22],>4 weeks,2.26,7.4,8000 µg/mL,
NS(=O)(=O)c1nn2cc(-c3ccc(N4CCOCC4)cc3)nc2s1 [Compound 5],,,,,"IC50 [9]: ~20 µM and 20 µM; Microsomal Stability (1 hr) [10]: 100%; IC50 [11, 13]: 7 µM; IC50 ([11]; anti-NGF induced cell death, read-out: anit-NGF SCG IC50): 22 µM"
COc1cccc(-c2ccc(-c3cn4nc(S(N)(=O)=O)sc4n3)cc2)c1 [Compound 9],,,,,"IC50 [9]: 5 µM; Microsomal Stability (1 hr) [10]: 74%; IC50 [11, 13]: 3 µM"
CSCCC(NC(=O)OC(C)(C)C)C(=O)NS(=O)(=O)c1nn2cc(-c3ccccc3)nc2s1 (stereo not shown) [Compound 23],>1 weeks,3.37,7.4,5000 µg/mL,
"NS(=O)(=O)c1nn2c(Br)c(-c3ccccc3)nc2s1 [5-Br-6-Ph-ITS, 5-Bromo-6-phenylmidazo[2,1-b]-1,3,4,-thiadiazole-2-sulfonamide, reference compound]",,,,,IC50 [9]: 3 µM; degradation in microsomal fractions [10]: rapidly degraded; also recorded: rapidly consumer by microsomal fractions; Microsomal Stability (1 hr) [10]: 0%
NS(=O)(=O)c1nn2cc(-c3ccc4c(c3)OCCCO4)nc2s1 [Compound 7],,,,,"IC50 [11, 13]: 7 µM"
[NH-]S(=O)(=O)c1nn2cc(-c3ccc(-c4cccc(C(F)(F)F)c4)cc3)nc2s1.[Na+] [Compound 12],,,,,"Cisplatin-induced loss in SNCV ([1]; 10-30 mg/kg, data not shown): protective; efficacy in cisplatin model of peripheral neuropathy [1]: efficacy; Stability of HPCD formulation [2]: >14 days; Solubility 10 wt/vol % HPCD water [4]: 4000 µg/mL; Solubility Water [4]: 1400 µg/mL"

# More lines, main results first:
Stability in 10 wt/vol HPCD [2],log P [7],pH [8],Solubility in 10 wt/vol HPCD [4],SMILES,further results
>1 weeks,4.96,7.4,10000 µg/mL,COCCOCC(=O)NS(=O)(=O)c1nn2cc(-c3ccc(-c4cccc(C(F)(F)F)c4)cc3)nc2s1 [Compound 41],
>1 weeks,5.76,7.4,5000 µg/mL,CC(C)(C)OC(=O)NS(=O)(=O)c1nn2cc(-c3ccc(-c4cccc(C(F)(F)F)c4)cc3)nc2s1 [Compound 43],
>1 weeks,4.85,7.4,10000 µg/mL,COCC(=O)NS(=O)(=O)c1nn2cc(-c3ccc(-c4cccc(C(F)(F)F)c4)cc3)nc2s1 [Compound 39],Cisplatin-induced attenuation of SNCV ([1]; 30 mg/kg SC): protective activity
>1 weeks,5.19,7.4,10000 µg/mL,CC(=O)NS(=O)(=O)c1nn2cc(-c3ccc(-c4cccc(C(F)(F)F)c4)cc3)nc2s1 [Compound 37],dissolution ([4]; 25 mg in 1 mL PEG 400/ethanol (50:50) + ethanolamine (20 μL)): clear solution
>4 weeks,4.35,7.4,10000 µg/mL,COCCOCCOCC(=O)NS(=O)(=O)c1nn2cc(-c3ccc(-c4cccc(C(F)(F)F)c4)cc3)nc2s1 [Compound 42],
,2.14,,,COCC(=O)NS(=O)(=O)c1nn2cc(-c3ccc(N4CCOCC4)cc3)nc2s1 [Compound 32],
>1 weeks,6.26,7.4,5000 µg/mL,CCCC(=O)NS(=O)(=O)c1nn2cc(-c3ccc(-c4cccc(C(F)(F)F)c4)cc3)nc2s1 [Compound 40],
